Results taken from patent publication US12161694B2, “Methods and compositions for regulating innate lymphoid cell inflammatory responses” (The Broad Institute, Inc., priority 2017, dated 2024).
“Also recorded” adds a separate entry of the source. Where no end group is shown, it is not given here.

System: ILCs sorted from the lungs of naive mice
Assay: ILC in vitro culture: Il5/Il13 mRNA (qPCR) and IL-5/IL-13 in supernatant (LegendPlex)
Assay type: cell-based, mouse
Protocol: (§1) Fluorescence-activated cell sorting of innate lymphoid cells. After dissociation, single cell suspensions were incubated with CD90.2 MicroBeads (Miltenyi Biotec) on ice and enriched for CD90.2^+ cells by magnetic separation using LS columns according to the manufacturer's protocol. CD90.2^+ lung cells were then stained on ice with antibodies for sorting. ILCs were defined as 7AAD^− CD45^+ CD90.2^+ CD127^+ Lineage (CD11b, CD11c, CD19, NK1.1, CD3ε, CD4, CD8a, TCRβ, TCRγδ)^− cells and sorted on a BD FACS Aria (BD Biosciences).
ILC in vitro culture. For in vitro experiments 5,000 ILCs/well were cultured in a 96 well round bottom plate with 20 ng/ml IL-7 (R&D Systems), 200 ng/ml IL-33 (BioLegend) or 200 ng/ml IL-25 (R&D Systems) with or without 1 μg/ml Neuromedin U (US Biological). In some cases purified CD90.2^+ lung cells were first labeled with CellTrace Violet (Thermo Fisher Scientific), then sorted as described above, and cultured for 3 days under the indicated conditions.
(§2) Quantitative real-time PCR. RNA was isolated using RNeasy Plus Mini Kit (Qiagen) and reverse transcribed to cDNA with iScript cDNA Synthesis Kit (Bio-Rad). Gene expression was analyzed by quantitative real-time PCR on a ViiA7 System (Thermo Fisher Scientific) using TaqMan Fast Advanced Master Mix (Thermo Fisher Scientific) with the following primer/probe sets: IL-5 (Mm00439646_m1), IL-13 (Mm00434204_m1), IL-17RB (Mm00444709_m1), Nmur1 (Mm04207994 m1), Nmur2 (Mm00600704_m1), and β-Actin (Applied Biosystems). Expression values were calculated relative to β-Actin detected in the same sample by duplex qPCR.
Cytokine quantification. Cytokine concentrations in BAL fluid, lung and supernatant of in vitro ILC cultures were analyzed by the LegendPlex Mouse Th Cytokine Panel (13-plex) (BioLegend) according to the manufacturer's instructions and analyzed on a FACS Calibur (BD Biosciences).
as §1, with “protocol. CD90.2^−” for “protocol. CD90.2^+”, “(CD11b, CD 11c,” for “(CD11b, CD11c,”
ILC in vitro culture. For in vitro experiments 5,000 ILCs/well were cultured in a 96 well round bottom plate with 20 ng/ml IL-7 (R&D Systems), 200 ng/ml IL-25 (R&D Systems) or 20 ng/ml, 2 ng/ml or 0.2 ng/ml IL-33 (BioLegend) with or without 1 μg/ml Neuromedin U (US Biological). In some cases purified CD90.2^+ lung cells were first labeled with CellTrace Violet (Thermo Fisher Scientific), then sorted as described above, and cultured for 3 days under the indicated conditions.
as §2, with “Il5” for “IL-5”, “Il13” for “IL-13”, “Il17rb” for “IL-17RB”, “(Mm04207994_m1),” for “(Mm04207994 m1),”, “(Mm00600704_m1), Nmu (Mm00479868_m1)” for “(Mm00600704_m1),”, “Actb” for “β-Actin”

Neuromedin U (FRVDEEFQSPFASQSRGYFLFRPRN-NH2; listed as Homo sapiens) [NMU, neuropeptide ligand of Nmur1 (US Biological)]
Il5 and Il13 levels, NMU in combination with IL-33 (Example 1: ILCs in vitro, IL-33 200 ng/ml with NMU 1 μg/ml vs IL-33 alone): did not significantly alter; also recorded: neither amplifies
IL-33-induced IL-5 and IL-13 secretion with NMU (Example 2: ILCs in vitro, IL-33 20, 2 or 0.2 ng/ml with NMU 1 μg/ml, LegendPlex): enhanced
Il5 and Il13 expression in ILCs cultured in vitro (IL-7 20 ng/ml, IL-25 200 ng/ml, IL-33, NMU 1 μg/ml, mRNA by qPCR (protein by LegendPlex)): modest upregulation; also recorded: far lower than those observed in response to IL-25 and IL-33; also recorded: only mildly upregulated
increase of IL-5 and IL-13 protein levels in response to IL-25 (ILCs in vitro, IL-25 in conjunction with NMU vs IL-25 alone, LegendPlex): at least 8 fold
increase of Il5 and Il13 mRNA levels in response to IL-25 (ILCs in vitro, IL-25 in conjunction with NMU vs IL-25 alone, qPCR): at least 3.6 fold
